From US12661356B2, “L718 and/or L792 mutant treatment-resistant EGFR inhibitor” (TAIHO PHARMACEUTICAL CO., LTD., priority 2018, dated 2026)

What was measured:
Experiment in all cases: Intracellular EGFR phosphorylation, mutant EGFR forced expression system using HEK293 cells
Type in all cases: cell-based
Settings in all cases: 6 hours incubation, p-EGFR (Tyr1068)/EGFR
[1] = biological target: T1, human EGFR L858R+T790M+L792Y (Homo sapiens, UniProt P00533, L792Y/L858R/T790M)
T1 construct: expressed in transfected cells; host or cells: Jump-In Grip HEK293 cells (Thermo Fisher Scientific)

human EGFR L858R = biological target: T2, human EGFR L858R (Homo sapiens, UniProt P00533, L858R)
T2 construct: expressed in transfected cells; host or cells: Jump-In Grip HEK293 cells (Thermo Fisher Scientific)

[2] = biological target: T3, human EGFR Ex19del+T790M+L718Q (Homo sapiens, UniProt P00533, DEL746-750/L718Q/T790M)
T3 construct: expressed in transfected cells; host or cells: Jump-In Grip HEK293 cells (Thermo Fisher Scientific)

[3] = biological target: T4, human EGFR Ex19del+T790M+L792H (Homo sapiens, UniProt P00533, DEL746-750/L792H/T790M)
T4 construct: expressed in transfected cells; host or cells: Jump-In Grip HEK293 cells (Thermo Fisher Scientific)

[4] = biological target: T5, human EGFR Ex19del (Del E746-A750) (Homo sapiens, UniProt P00533, DEL746-750)
T5 construct: expressed in transfected cells; host or cells: Jump-In Grip HEK293 cells (Thermo Fisher Scientific)

[5] = biological target: T6, human EGFR L858R+T790M+L792F (Homo sapiens, UniProt P00533, L792F/L858R/T790M)
T6 construct: expressed in transfected cells; host or cells: Jump-In Grip HEK293 cells (Thermo Fisher Scientific)

human EGFR Ex19del+T790M = biological target: T7, human EGFR Ex19del+T790M (Homo sapiens, UniProt P00533, DEL746-750/T790M)
T7 construct: expressed in transfected cells; host or cells: Jump-In Grip HEK293 cells (Thermo Fisher Scientific)

[6] = biological target: T8, human EGFR Ex19del+T790M+L792Y (Homo sapiens, UniProt P00533, DEL746-750/L792Y/T790M)
T8 construct: expressed in transfected cells; host or cells: Jump-In Grip HEK293 cells (Thermo Fisher Scientific)

[7] = biological target: T9, human EGFR L858R+T790M+L718Q (Homo sapiens, UniProt P00533, L718Q/L858R/T790M)
T9 construct: expressed in transfected cells; host or cells: Jump-In Grip HEK293 cells (Thermo Fisher Scientific)

human EGFR L858R+T790M = biological target: T10, human EGFR L858R+T790M (Homo sapiens, UniProt P00533, L858R/T790M)
T10 construct: expressed in transfected cells; host or cells: Jump-In Grip HEK293 cells (Thermo Fisher Scientific)

[8] = biological target: T11, human EGFR L858R+T790M+L792H (Homo sapiens, UniProt P00533, L792H/L858R/T790M)
T11 construct: expressed in transfected cells; host or cells: Jump-In Grip HEK293 cells (Thermo Fisher Scientific)

[9] = biological target: T12, human EGFR Ex19del+T790M+L792F (Homo sapiens, UniProt P00533, DEL746-750/L792F/T790M)
T12 construct: expressed in transfected cells; host or cells: Jump-In Grip HEK293 cells (Thermo Fisher Scientific)

T6 sequence (P00533 25-1210 T790M/L792F/L858R): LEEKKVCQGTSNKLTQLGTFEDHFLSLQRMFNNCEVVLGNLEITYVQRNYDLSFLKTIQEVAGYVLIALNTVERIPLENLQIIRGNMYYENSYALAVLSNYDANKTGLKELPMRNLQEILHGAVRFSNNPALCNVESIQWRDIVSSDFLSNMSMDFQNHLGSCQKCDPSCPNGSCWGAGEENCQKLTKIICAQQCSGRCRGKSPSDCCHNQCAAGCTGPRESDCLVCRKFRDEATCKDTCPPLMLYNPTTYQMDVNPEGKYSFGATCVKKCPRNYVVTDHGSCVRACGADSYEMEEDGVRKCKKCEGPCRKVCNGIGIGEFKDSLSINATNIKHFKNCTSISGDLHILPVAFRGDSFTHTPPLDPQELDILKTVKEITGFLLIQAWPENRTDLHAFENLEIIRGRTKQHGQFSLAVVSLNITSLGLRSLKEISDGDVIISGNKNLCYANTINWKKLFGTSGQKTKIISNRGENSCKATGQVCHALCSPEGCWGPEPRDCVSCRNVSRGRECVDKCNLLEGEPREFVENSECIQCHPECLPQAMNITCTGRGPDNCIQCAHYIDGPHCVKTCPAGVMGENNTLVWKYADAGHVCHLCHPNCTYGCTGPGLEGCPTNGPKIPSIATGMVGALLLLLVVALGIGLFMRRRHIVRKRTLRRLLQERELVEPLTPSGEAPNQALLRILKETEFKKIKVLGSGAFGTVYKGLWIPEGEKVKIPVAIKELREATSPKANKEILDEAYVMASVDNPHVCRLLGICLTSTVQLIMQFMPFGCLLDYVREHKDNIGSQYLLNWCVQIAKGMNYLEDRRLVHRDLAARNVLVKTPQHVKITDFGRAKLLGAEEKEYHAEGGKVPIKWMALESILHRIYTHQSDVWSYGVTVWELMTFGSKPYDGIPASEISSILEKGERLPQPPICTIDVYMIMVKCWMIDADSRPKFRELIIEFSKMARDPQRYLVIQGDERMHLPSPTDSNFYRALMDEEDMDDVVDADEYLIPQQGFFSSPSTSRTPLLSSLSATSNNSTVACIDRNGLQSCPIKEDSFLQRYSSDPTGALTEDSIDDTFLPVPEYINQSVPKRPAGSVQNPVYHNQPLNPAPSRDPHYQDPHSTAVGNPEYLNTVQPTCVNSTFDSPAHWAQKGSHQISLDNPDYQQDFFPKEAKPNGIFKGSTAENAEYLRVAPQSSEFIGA
T11 sequence (P00533 25-1210 T790M/L792H/L858R): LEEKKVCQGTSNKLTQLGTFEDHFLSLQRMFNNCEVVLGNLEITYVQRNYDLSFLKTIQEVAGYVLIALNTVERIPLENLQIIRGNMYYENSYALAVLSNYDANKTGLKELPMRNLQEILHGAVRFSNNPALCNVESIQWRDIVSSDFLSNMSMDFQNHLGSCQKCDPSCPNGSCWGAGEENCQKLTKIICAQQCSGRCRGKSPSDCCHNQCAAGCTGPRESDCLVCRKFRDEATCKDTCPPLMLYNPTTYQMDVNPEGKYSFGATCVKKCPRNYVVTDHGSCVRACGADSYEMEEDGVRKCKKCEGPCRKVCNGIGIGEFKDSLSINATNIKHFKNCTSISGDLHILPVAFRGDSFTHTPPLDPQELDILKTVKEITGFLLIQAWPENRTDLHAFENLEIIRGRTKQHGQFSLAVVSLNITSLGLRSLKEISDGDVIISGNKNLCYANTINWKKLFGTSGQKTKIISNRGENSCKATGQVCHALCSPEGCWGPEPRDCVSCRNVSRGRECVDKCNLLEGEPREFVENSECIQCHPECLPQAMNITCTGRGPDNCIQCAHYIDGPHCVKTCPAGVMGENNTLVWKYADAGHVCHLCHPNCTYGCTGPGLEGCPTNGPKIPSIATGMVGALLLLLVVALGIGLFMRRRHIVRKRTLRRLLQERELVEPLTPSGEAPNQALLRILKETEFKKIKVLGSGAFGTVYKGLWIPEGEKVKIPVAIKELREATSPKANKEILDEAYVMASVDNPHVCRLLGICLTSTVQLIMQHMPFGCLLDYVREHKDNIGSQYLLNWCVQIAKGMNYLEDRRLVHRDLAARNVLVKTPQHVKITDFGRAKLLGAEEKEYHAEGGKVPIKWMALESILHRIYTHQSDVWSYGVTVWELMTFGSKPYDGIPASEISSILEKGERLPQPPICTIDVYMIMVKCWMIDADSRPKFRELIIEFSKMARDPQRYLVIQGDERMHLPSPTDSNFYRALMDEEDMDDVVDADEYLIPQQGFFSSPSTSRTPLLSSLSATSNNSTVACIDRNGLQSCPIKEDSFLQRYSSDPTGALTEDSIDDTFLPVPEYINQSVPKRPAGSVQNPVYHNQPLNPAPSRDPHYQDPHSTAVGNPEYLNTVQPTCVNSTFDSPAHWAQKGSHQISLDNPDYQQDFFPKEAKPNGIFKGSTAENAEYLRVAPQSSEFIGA
T7 sequence (P00533 with tags, fused parts or gaps DEL746-750/T790M): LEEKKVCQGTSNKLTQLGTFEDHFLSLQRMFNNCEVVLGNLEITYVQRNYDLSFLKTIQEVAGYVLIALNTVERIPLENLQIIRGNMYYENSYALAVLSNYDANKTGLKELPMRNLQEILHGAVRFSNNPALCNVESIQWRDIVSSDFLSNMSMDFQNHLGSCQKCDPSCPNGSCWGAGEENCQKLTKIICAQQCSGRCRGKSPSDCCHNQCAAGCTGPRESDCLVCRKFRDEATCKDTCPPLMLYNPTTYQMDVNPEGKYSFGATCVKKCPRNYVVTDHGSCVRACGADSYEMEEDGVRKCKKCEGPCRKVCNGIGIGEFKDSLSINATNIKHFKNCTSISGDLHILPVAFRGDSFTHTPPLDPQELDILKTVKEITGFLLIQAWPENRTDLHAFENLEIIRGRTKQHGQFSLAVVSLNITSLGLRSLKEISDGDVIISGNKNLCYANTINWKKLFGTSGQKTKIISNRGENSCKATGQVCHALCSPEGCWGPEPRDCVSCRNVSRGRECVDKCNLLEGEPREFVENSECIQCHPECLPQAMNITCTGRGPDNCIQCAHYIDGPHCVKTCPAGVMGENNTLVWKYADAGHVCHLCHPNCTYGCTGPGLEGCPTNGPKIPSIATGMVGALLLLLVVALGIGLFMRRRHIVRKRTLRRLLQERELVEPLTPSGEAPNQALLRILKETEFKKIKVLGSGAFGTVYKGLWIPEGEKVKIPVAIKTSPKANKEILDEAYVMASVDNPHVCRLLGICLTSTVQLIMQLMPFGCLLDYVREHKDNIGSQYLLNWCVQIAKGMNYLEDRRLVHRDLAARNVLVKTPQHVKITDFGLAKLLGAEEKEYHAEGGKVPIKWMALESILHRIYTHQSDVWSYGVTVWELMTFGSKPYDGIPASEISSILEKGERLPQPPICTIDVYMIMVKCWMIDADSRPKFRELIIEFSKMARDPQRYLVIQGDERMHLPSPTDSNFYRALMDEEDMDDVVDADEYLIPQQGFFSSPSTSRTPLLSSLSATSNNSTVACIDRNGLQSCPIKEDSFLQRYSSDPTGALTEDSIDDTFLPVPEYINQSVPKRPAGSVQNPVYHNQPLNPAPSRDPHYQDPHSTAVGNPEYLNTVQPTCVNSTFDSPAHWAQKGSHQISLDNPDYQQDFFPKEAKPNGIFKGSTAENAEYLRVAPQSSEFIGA
T4 sequence (P00533 with tags, fused parts or gaps DEL746-750/T790M/L792H): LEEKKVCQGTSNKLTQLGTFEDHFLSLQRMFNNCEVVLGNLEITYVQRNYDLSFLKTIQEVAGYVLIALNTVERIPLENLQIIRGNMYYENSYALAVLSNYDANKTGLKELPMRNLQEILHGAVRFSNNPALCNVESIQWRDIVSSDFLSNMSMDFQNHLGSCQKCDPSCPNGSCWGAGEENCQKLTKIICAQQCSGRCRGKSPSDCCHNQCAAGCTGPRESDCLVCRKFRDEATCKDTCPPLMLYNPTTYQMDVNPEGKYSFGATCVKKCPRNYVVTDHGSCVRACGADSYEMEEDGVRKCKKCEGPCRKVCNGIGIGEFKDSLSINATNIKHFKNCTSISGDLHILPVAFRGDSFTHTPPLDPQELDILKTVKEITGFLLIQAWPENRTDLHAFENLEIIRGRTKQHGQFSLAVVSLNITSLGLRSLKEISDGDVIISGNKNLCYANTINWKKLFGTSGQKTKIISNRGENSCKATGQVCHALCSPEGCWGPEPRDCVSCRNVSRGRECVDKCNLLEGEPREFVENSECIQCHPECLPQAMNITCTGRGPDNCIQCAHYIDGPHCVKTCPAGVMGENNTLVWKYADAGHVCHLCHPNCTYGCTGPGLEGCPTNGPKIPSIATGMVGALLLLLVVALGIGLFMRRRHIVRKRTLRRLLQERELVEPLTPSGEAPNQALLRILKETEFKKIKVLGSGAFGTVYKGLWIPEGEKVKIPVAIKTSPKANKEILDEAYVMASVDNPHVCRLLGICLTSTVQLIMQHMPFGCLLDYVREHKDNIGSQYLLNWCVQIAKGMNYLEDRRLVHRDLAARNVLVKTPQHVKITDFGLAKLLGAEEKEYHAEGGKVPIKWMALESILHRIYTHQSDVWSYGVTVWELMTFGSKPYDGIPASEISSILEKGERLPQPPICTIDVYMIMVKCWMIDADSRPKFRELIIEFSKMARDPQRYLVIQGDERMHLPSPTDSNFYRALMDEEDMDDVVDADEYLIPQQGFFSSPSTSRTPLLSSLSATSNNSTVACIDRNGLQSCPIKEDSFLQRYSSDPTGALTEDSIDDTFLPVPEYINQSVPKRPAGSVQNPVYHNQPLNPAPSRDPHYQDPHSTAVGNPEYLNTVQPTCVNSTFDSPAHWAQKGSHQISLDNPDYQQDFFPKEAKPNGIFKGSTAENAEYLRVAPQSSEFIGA

C=CC(=O)N[C@H]1C=C(C)c2c(-c3cnc4ccccc4c3)c3c(N)ncnc3n2C1 [Compound A, (S)—N-(4-amino-6-methyl-5-(quinolin-3-yl)-8,9-dihydropyrimido[5,4-b]indolizin-8-yl) acrylamide]
IC50 [1]: 11.3 ± 5.8 µM
IC50 (human EGFR L858R): 13.8 ± 3.8 µM
IC50 [2]: 82.5 ± 9 µM
IC50 [3]: 11.1 ± 5.6 µM
IC50 [4]: 11.2 ± 6.4 µM
IC50 [5]: 9.07 ± 4.74 µM
IC50 (human EGFR Ex19del+T790M): 16.9 ± 5.9 µM
IC50 [6]: 6.54 ± 1.49 µM
IC50 [7]: 104 ± 40 µM
IC50 (human EGFR L858R+T790M): 16 ± 2.6 µM
IC50 [8]: 15.3 ± 5 µM
IC50 [9]: 6.25 ± 1.83 µM
